Data from PMC12566723, “Boronic Derivatives of Thiosemicarbazones as Tyrosinase Inhibitors” (Pharmaceutics, 2025).
Structures can show the parent of a compound that is named as a salt.

Columns and labels:
SK-MEL-3 = assay: Antiproliferative activity by sulforhodamine B assay, SK-MEL-3; assay type: cell-based; settings: SRB; for IC50: SK-MEL-3, 72 h; for inhibition at 100 µM: SK-MEL3, read-out: proliferation inhibition at 100µM (reported if IC50 > 100 µM), SK-MEL-3, 100 µM, 72 h
Protocol: (§1) Cell lines. The Hs-294T (HTB-140), MCF-10A, and SK-MEL-3 (HTB-69) cell lines were purchased from the American Type Culture Collection (ATCC; Rockville, MD, USA). The KU-19-19 was purchased from Leibniz Institute DSMZ-German Collection of Microorganisms and Cell Cultures GmbH (Braunschweig, Germany). Hs-294T, SK-MEL-3, and KU-19-19 (ACC 395) cell lines were cultured in Dulbecco’s Modified Eagle Medium (DMEM; Biowest, Nuaille, France) supplemented with 10% (v/v) fetal bovine serum (FBS; GE Healthcare HyClone, Logan, UT, USA), 2 mM L-glutamine (Sigma-Aldrich, Poznań, Poland). The MCF-10A cell line was cultured in Ham’s F12 medium with glutamine (Corning Costar, Warsaw, Poland) supplemented with 5% (v/v) FBS, 5% (v/v) horse serum, 10 µg/mL insulin, 0.05 µg/mL cholera toxin, 0.5 µg/mL hydrocortisone, and 20 ng/mL hEGF (all from Sigma-Aldrich). All culture media contained 100 µg/mL streptomycin (Sigma-Aldrich) and 100 U/mL penicillin (PolfaTarchomin SA, Warsaw, Poland). The cell lines were tested for mycoplasma contamination using Venor GeM Classic (Minerva Biolabs, Berlin, Germany) with negative results in all cases. Cell lines were cultured in a humidified atmosphere at 37 °C with 5% (v/v) CO2 and passaged twice a week using ethylenediaminetetraacetic acid (EDTA)-Trypsin solution (pH 8; HIIET, Wroclaw, Poland) as a detachment agent.
(§2) Antiproliferative activity assessment by sulforhodamine B assay. The cells were seeded on 384-well plates (Greiner Bio One, Kremsmünster, Austria) at a density of 1 × 10^3 cells/well and, after overnight attachment, were exposed to compounds at various concentrations (at least eight concentrations). After 72 h, the sulforhodamine B (SRB) assay based on Skehan et al. was performed with minor modifications. Briefly, cell were fixed with 20% (w/v) trichloroacetic acid (Avantor Performance Materials, Gliwice, Poland) for 1 h, washed several times with tap water, and stained with 20 µL of 0.1% (w/v) solution of sulforhodamine B (Sigma-Aldrich, Poznan, Poland) in 1% (v/v) acetic acid (Avantor Performance Materials, Gliwice, Poland). After 30 min of incubation at room temperature, the unbound dye was washed out with 1% (v/v) acetic acid, whereas the bound dye was solubilized with 70 µL of a 10 mM unbuffered tris(hydroxymethyl)aminomethane (TRIS; Avantor Performance Materials, Gliwice, Poland) solution. The entire procedure was performed using Biotek EL-406 washing station (BioTek Instruments, Winooski, VT, USA). Absorbance was read using a Biotek Hybrid H4 reader (BioTek Instruments, Winooski, VT, USA) at 540 nm wavelength. Proliferation inhibition (%Inh) was calculated using the following formula: %Inh = [((A_p − A_m)/(A_k − A_m)) × 100] − 100, where Am—absorbance of cell-free medium (blank), Ak—absorbance for vehicle-treated cells (control), Ap—absorbance for compound-treated cells. […] 10.5.0 (GraphPad Software Inc., San Diego, CA, USA) using the [inhibitor] vs. response—variable slope (four parameters) Hill’s equation, based on at least three biological, independent repeats.

Hs-294T = assay: Antiproliferative activity by sulforhodamine B assay, Hs-294T; assay type: cell-based; settings: for IC50: 72 h, SRB; for inhibition at 100 µM: read-out: proliferation inhibition at 100µM (reported if IC50 > 100 µM), 100 µM, 72 h, SRB
Protocol: as §1, §2

KU-19-19 = assay: Antiproliferative activity by sulforhodamine B assay, KU-19-19; assay type: cell-based; settings: SRB; for IC50: KU-19-19, 72 h; for inhibition at 100 µM: read-out: proliferation inhibition at 100µM (reported if IC50 > 100 µM), KU-19-19, 100 µM, 72 h
Protocol: as §1, §2

MCF-10A = assay: Antiproliferative activity by sulforhodamine B assay, MCF-10A; assay type: cell-based; settings: for IC50: 72 h, SRB; for inhibition at 100 µM: read-out: proliferation inhibition at 100µM (reported if IC50 > 100 µM), 100 µM, 72 h, SRB
Protocol: as §1, §2

[1] = test system: SK-MEL-3, Hs294T, KU-19-19, MCF-10A cell lines; assay: Antiproliferative activity by sulforhodamine B assay, statements across the cell line panel; assay type: cell-based; settings: for IC50 in SK-MEL-3 relative to the Hs294T cell line: SK-MEL-3 vs Hs294T, fold higher; for antiproliferative effects in words: up to a concentration of 100 µM
Protocol: as §1, §2
In view of the results obtained from studies on the inhibitory activity of boronate derivatives of thiosemicarbazones against tyrosinase, we decided to test their ability to inhibit the growth and proliferation of tumor lines that overexpress tyrosinase. For this purpose, we tested antiproliferative activity on selected cell lines. Initial antiproliferative screening was conducted using a tissue-agnostic approach on a select panel of cell lines. […]

mushroom tyrosinase = mushroom tyrosinase (Agaricus bisporus, UniProt C7FF04); assay: Tyrosinase enzymatic assay (diphenolase activity, L-DOPA substrate, dopachrome at 475 nm); assay type: biochemical; settings: para-substituted analogue vs carboxylic acid of ref 30
mushroom tyrosinase, sequence (C7FF04 2-392): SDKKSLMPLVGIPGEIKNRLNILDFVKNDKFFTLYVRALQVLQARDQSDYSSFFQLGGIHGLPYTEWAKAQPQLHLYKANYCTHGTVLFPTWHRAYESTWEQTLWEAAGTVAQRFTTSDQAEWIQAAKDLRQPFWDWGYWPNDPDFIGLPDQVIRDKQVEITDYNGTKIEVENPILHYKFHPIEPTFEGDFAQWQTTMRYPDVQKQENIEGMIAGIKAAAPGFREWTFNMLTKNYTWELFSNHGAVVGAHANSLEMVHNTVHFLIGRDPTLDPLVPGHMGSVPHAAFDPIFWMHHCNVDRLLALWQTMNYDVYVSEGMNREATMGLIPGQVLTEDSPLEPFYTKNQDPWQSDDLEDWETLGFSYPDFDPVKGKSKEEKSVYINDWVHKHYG
mushroom tyrosinase, sequence (G1K3P4 1-150 partner): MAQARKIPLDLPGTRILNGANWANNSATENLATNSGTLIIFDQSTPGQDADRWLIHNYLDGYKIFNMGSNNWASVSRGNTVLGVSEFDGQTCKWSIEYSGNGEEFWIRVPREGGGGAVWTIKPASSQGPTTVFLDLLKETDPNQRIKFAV

Structure (SMILES) | inhibition at 100 µM (SK-MEL-3; Homo sapiens) [%] | inhibition at 100 µM (Hs-294T; Homo sapiens) [%] | inhibition at 100 µM (KU-19-19; Homo sapiens) [%] | inhibition at 100 µM (MCF-10A; Homo sapiens) [%] | IC50 (SK-MEL-3; Homo sapiens, SK-MEL3) [µM] | further results
[NH2][Pt]([NH2])([Cl])[Cl] [CDDP, Cisplatin, reference compound] |  |  |  |  |  | IC50 (SK-MEL-3): 15 µM; IC50 (Hs-294T): 2.17 µM; IC50 (KU-19-19): 4.46 µM; IC50 (MCF-10A): 3.03 µM; IC50 in SK-MEL-3 relative to the Hs294T cell line [1]: 6.9 fold
NC(=S)N1N=Cc2ccccc2B1O [Compound 1] | 43.4 | 55.4 | 21.4 | 42.7 |  | 
NC(=S)NN=Cc1cccc(B(O)O)c1 [Compound 2] | 50.7 | 37.6 | 11.3 | 30.7 |  | 
NC(=S)N/N=C/c1ccc(B(O)O)cc1 [Compound 3] | 31.8 | 13.9 | 5.4 | 31.7 |  | antiproliferative effects in words [1]: minimal antiproliferative effects
CC1=NN(C(N)=S)B(O)c2ccccc21 [Compound 4] |  |  |  |  | 68.5 | IC50 (Hs-294T; Homo sapiens): 79.4 µM; IC50 (KU-19-19; Homo sapiens): 69 µM; IC50 (MCF-10A; Homo sapiens): 55 µM; IC50 ([1]; all four cell lines, 72 h, SRB, read-out: IC50 values, range over the tested cell lines): 55 to 79.4 µM
C/C(=N\NC(N)=S)c1cccc(B(O)O)c1 [Compound 5] |  | 35.9 | 26.8 | 37.1 | 56.1 | 
C/C(=N\NC(N)=S)c1ccc(B(O)O)cc1 [Compound 6] | 37.3 | 13.9 | 9.5 | 32.8 |  | IC50 against tyrosinase compared with the corresponding carboxylic acid (mushroom tyrosinase): four times lower; antiproliferative effects in words [1]: minimal antiproliferative effects
COc1cccc2c1C(=O)c1c(O)c3c(c(O)c1C2=O)C[C@@](O)(C(=O)CO)C[C@@H]3O[C@H]1C[C@H](N)[C@H](O)[C@H](C)O1 [Doxo, Doxorubicin hydrochloride, reference compound] |  |  |  |  | 0.016 | IC50 (Hs-294T; Homo sapiens): 0.0011 µM; IC50 (KU-19-19; Homo sapiens): 0.0016 µM; IC50 (MCF-10A; Homo sapiens): 0.00051 µM; IC50 in SK-MEL-3 relative to the Hs294T cell line [1]: 14.5 fold
